In patent US20240400553A1, “AMINE BASED MATRIPTASE 2 INHIBITORS AND USES THEREOF” (Disc Medicine, Inc., priority 2023, published 2024):

These molecules were tested against T1, Human Recombinant Matriptase 2 (Homo sapiens, UniProt Q8IU80) (assay: Matriptase 2 inhibition, fluorescence based assay (Method I)). Conditions: Table A; Ki of Matriptase-2; read-out: Mat-2 Ki.
T1 construct: made in house
T1 sequence (Q8IU80 1-811): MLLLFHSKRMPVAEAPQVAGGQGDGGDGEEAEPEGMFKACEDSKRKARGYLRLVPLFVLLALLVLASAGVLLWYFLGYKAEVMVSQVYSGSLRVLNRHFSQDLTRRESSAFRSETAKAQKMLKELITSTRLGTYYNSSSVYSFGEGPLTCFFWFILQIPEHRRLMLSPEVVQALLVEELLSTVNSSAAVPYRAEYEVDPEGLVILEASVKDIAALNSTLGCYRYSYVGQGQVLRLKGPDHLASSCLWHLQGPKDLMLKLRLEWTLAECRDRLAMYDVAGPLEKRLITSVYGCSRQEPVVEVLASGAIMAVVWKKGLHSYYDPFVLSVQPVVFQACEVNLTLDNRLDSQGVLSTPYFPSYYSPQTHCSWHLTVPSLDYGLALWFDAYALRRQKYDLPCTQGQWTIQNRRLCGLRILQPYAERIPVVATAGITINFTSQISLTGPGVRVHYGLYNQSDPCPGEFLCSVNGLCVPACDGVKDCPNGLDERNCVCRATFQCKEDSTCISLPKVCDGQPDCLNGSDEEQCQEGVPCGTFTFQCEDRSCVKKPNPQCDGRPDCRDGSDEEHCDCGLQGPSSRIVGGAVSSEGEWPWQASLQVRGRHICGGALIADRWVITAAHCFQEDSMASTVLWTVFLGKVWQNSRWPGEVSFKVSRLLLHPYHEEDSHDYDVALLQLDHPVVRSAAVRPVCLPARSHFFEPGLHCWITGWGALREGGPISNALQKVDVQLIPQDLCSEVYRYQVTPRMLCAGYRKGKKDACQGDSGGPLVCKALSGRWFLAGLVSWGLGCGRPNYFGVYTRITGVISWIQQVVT
Type: biochemical
Summary of the method: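 Fluorogenic readout (Ex 360/Em 480 nm) taken 60 min after adding 62 μM Boc-Gln-Ala-Arg-AMC, following 30-min enzyme–compound preincubation at 25 °C. Conditions: 3.5 nM in-house enzyme, pH 7.5 Tris/NaCl/gelatin buffer, 1% DMSO; percent inhibition versus concentration fitted by variable-slope sigmoidal regression.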

Row | SMILES | Ki [nM]
1 | NCc1ccc2cc(C(=O)OCCCCN3CCOCC3)n(Cc3cc(NS(=O)(=O)Cc4ccccc4)cc4ccccc34)c2n1 [Compound 7, 4-morpholinobutyl 6-(aminomethyl)-1-((3-((phenylmethyl)sulfonamido)naphthalen-1-yl)methyl)-1H-pyrrolo[2,3-b]pyridine-2-carboxylate] | ≤ 100
2 | NCc1ccc2cc(C(=O)OCC3CCNCC3)n(Cc3cc(NS(=O)(=O)Cc4ccccc4)cc4ccccc34)c2n1 [Compound 9, (piperidin-4-yl)methyl 6-(aminomethyl)-1-{[3-(phenylmethanesulfon-amido)naphthalen-1-yl]-methyl}-1H-pyrrolo[2,3-b]pyridine-2-carboxylate] | ≤ 100
3 | CN1CCC(C)(COC(=O)c2cc3ccc(CN)nc3n2Cc2cc(NS(=O)(=O)Cc3ccccc3)cc3ccccc23)CC1 [Compound 10, (1,4-dimethylpiperidin-4-yl)methyl 6-(amino-methyl)-1-{[3-(phenyl-methanesulfonamido)-naphthalen-1-yl]meth-yl}-1H-pyrrolo[2,3-b]-pyridine-2-carboxylate] | ≤ 100
4 | CN1CCC(CNC(=O)c2cc3ccc(CN)nc3n2Cc2cc(NS(=O)(=O)Cc3ccccc3)cc3ccccc23)CC1 [Compound 12, 6-(aminomethyl)-N-[(1-methylpiperidin-4-yl)-methyl]-1-{[3-(phenyl-methanesulfonamido)-naphthalen-1-yl]meth-yl}-1H-pyrrolo[2,3-b]-pyridine-2-carboxamide] | ≤ 100
5 | CCN1CCC(COC(=O)c2cc3ccc(CN)nc3n2Cc2cc(NS(=O)(=O)Cc3ccccc3)cc3ccccc23)CC1 [Compound 13, (1-ethylpiperidin-4-yl)-methyl 6-(aminomethyl)-1-{[3-(phenylmethane-sulfonamido)naphthalen-1-yl]methyl}-1H-pyr-rolo[2,3-b]pyridine-2-carboxylate] | ≤ 100
6 | CC(C)N1CCC(CNC(=O)c2cc3ccc(CN)nc3n2Cc2cc(NS(=O)(=O)Cc3ccccc3)cc3ccccc23)CC1 [Compound 14, 6-(aminomethyl)-1-{[3-(phenylmethanesulfon-amido)naphthalen-1-yl]-methyl}-N-{[1-(propan-2-yl)piperidin-4-yl]-methyl}-1H-pyrrolo-[2,3-b]pyridine-2-car-boxamide] | ≤ 100
7 | CC(C)N1CCC(COC(=O)c2cc3ccc(CN)nc3n2Cc2cc(NS(=O)(=O)Cc3ccccc3)cc3ccccc23)CC1 [Compound 15] | ≤ 100
8 | CC(C)N1CCC(OC(=O)c2cc3ccc(CN)nc3n2Cc2cc(NS(=O)(=O)Cc3ccccc3)cc3ccccc23)CC1 [Compound 16, 1-(propan-2-yl)piperidin-4-yl 6-(aminomethyl)-1-{[3-(phenylmethane-sulfonamido)naphthalen-1-yl]methyl}-1H-pyr-rolo[2,3-b]pyridine-2-carboxylate] | ≤ 100
9 | CN1CCC(COC(=O)c2cc3ccc(CN)nc3n2Cc2cc(NS(=O)(=O)Cc3ccccc3)cc3ccccc23)CC1 [Compound 17, (1-methylpiperidin-4-yl)methyl 6-(amino-methyl)-1-{[3-(phenyl-methanesulfonamido)-naphthalen-1-yl]methyl}-1H-pyrrolo[2,3-b]pyr-idine-2-carboxylate] | ≤ 100
10 | CN1CCC(OC(=O)c2cc3ccc(CN)nc3n2Cc2cc(NS(=O)(=O)Cc3ccccc3)cc3ccccc23)CC1 [Compound 18, 1-methylpiperidin-4-yl 6-(aminomethyl)-1-{[3-(phenylmethanesulfon-amido)naphthalen-1-yl]-methyl}-1H-pyrrolo[2,3-b]pyridine-2-carboxylate] | ≤ 100
11 | NCc1ccc2cc(C(=O)OCC34CCN(CC3)CC4)n(Cc3cc(NS(=O)(=O)Cc4ccccc4)cc4ccccc34)c2n1 [Compound 19, {1-azabicyclo[2.2.2]-octan-4-yl}methyl 6-(aminomethyl)-1-{[3-(phenylmethanesulfon-amido)naphthalen-1-yl]-methyl}-1H-pyrrolo[2,3-b]pyridine-2-carboxylate] | ≤ 100
